Data on seven molecules can be found in article PMC10706804, “Synthesis and Characterization of a New Class of Chromene-Azo Sulfonamide Hybrids as Promising Anticancer Candidates with the Exploration of Their EGFR, hCAII, and MMP-2 Inhibitors Based on Molecular Docking Assays” (International Journal of Molecular Sciences, 2023).

The structures appear in SMILES notation. Several values for one entry are separate records, joined by “and”; a condition that tells them apart may be missing. Equal values may be shown once.

In the first assay the test system is normal Vero cell line (Vero CCL-81). Kind of assay: Normotoxicity assessment, normal Vero cell line. Format: cell-based, African Green Monkey. The settings on record: Chlorocebus sabaeus; normal Vero CCL-81 cells, cytotoxicity. An excerpt: (§1) Three human tumorous cell lines—human colon carcinoma (HCT-116), human liver carcinoma (HepG-2), and human breast adenocarcinoma (MCF-7)—were subjected to cytotoxic behavior, employing the MTT analysis. Moreover, a normotoxicity assessment was employed against normal Vero cell line (African Green Monkey Kidney cells) for selected active compounds to determine their therapeutic safety. […] The inhibitory performance of derivatives 1a–e, 2a–e, 7a–g, 8, and 11a–e, and its derived relation to the cell proliferation of these three cancers, are described in Table 1 and Figure 2. […] Characteristically, the inhibitory activity was enhanced via incorporating the azo moieties in compounds 2a–b.
(§2) The cytotoxic activity was appraised using the 3-(4,5-dimethylthiazol-2-yl)-2,5-diphenyl-tetrazolium bromide (MTT) colorimetric assay as reported previously.
As a reminder, the IC50 is the concentration needed to halve the response being measured. On to `CCOC(=O)C1=C(N/C(=C(/C#N)C(=O)OCC)c2ccc(C)cc2)Oc2cc(O)c(/N=N/c3ccc(S(=O)(=O)Nc4nccs4)cc3)cc2C1c1ccc(C)cc1` (stereo not shown) [11d], for which the half-inhibitory concentration (IC50) was found to be 278 ± 6.45 µM.

The molecule `CCOC(=O)C1=C(N/C(=C(/C#N)C(=O)OCC)c2ccc(C)cc2)Oc2cc(O)c(/N=N/c3ccc(S(=O)(=O)Nc4cc(C)no4)cc3)cc2C1c1ccc(C)cc1` (stereo not shown) [11e] gave a half-maximal inhibitory concentration (IC50) of 162 ± 6.48 µM.

`CCOC(=O)C1=C(N/C(=C(/C#N)C(=O)OCC)c2ccc(C)cc2)Oc2cc(O)c(/N=N/c3ccc(S(=O)(=O)NC(=N)N)cc3)cc2C1c1ccc(C)cc1` (stereo not shown) [11c] displayed an IC50 of 328 ± 8.26 µM.

Turning to `CCOC(=O)C1=C(N/C(=C(/C#N)C(=O)OCC)c2ccc(C)cc2)Oc2cc(O)c(/N=N/c3ccc(S(N)(=O)=O)cc3)cc2C1c1ccc(C)cc1` (stereo not shown) [11a], the IC50 stood at 139 ± 5.26 µM.

In another assay the target is T1, EGFR (Homo sapiens, UniProt P00533).
T1 construct: purchased BPS Bioscience 40321
T1 sequence (P00533 25-1210): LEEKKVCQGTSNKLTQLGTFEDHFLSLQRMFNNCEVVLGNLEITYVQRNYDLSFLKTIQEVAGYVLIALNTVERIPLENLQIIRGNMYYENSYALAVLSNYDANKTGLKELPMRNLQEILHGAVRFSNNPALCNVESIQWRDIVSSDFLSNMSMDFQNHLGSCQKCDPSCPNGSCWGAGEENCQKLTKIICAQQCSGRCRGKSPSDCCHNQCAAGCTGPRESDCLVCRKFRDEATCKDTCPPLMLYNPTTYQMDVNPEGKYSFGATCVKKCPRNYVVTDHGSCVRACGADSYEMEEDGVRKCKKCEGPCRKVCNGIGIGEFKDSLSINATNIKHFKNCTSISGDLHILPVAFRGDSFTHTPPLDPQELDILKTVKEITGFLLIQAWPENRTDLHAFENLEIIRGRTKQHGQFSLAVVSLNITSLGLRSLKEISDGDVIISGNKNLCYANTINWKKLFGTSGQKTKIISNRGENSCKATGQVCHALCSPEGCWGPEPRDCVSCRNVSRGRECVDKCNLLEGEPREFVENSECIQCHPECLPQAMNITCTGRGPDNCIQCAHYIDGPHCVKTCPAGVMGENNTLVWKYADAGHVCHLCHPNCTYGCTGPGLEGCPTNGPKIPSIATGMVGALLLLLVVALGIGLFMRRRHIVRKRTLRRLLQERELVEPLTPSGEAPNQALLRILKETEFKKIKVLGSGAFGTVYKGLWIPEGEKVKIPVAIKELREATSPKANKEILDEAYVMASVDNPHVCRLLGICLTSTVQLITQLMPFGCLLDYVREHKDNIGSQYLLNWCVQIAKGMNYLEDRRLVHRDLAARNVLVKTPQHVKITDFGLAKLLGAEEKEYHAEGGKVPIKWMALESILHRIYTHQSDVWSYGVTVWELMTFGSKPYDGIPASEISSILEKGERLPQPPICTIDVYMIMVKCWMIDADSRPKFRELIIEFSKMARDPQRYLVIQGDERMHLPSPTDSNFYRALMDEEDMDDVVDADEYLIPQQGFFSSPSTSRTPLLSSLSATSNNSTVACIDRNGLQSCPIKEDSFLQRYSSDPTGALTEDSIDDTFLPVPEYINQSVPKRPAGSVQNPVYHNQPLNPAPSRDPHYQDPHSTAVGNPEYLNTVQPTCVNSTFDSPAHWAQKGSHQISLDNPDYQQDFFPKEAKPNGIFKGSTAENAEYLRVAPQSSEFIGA
Kind of assay: EGFR kinase assay kit inhibition. Format: biochemical.
Details: not given
As for the experimental part:
After ADP is converted into ATP, ATP can be used as the substrate of the luciferase-catalyzed reaction to generate an optical signal, which is positively correlated with kinase activity. […] The plate was incubated at 30 °C for 40 min.
Turning to `CCOC(=O)C1=C(N)Oc2cc(O)c(/N=N/c3ccc(S(N)(=O)=O)cc3)cc2C1c1ccccc1` (stereo not shown) [7a], half-maximal inhibition (IC50) required 23.4 µM.

`CCOC(=O)C1=C(N)Oc2cc(O)c(/N=N/c3ccc(S(N)(=O)=O)cc3)cc2C1c1ccc(Cl)cc1` (stereo not shown) [7f] had an IC50 of 12.7 µM.

The target of a further assay is T2, MMP-2 (Homo sapiens, UniProt P08253).
T2 sequence (P08253 110-660): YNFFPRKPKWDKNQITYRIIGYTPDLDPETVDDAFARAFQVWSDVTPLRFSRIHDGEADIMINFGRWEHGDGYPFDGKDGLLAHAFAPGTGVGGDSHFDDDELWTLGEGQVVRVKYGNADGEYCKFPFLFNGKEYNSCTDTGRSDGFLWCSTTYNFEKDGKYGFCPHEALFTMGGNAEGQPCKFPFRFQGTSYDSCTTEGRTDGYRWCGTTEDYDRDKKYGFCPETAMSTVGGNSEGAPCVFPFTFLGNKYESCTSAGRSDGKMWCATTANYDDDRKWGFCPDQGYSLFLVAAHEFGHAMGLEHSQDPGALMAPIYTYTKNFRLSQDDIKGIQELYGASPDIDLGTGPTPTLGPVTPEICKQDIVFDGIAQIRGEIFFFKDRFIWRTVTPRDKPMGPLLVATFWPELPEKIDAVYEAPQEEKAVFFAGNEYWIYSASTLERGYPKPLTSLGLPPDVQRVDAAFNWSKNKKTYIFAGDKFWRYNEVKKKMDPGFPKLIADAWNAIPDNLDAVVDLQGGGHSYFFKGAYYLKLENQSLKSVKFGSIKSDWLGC
Nature of the assay: MMP-2 Inhibitor Screening Assay Kit (colorimetric). The settings on record: IC50 on MMP-2, MMP-2 inhibitor screening kit.
Consider `CNC(=O)c1cc(Oc2ccc(NC(=O)Nc3ccc(Cl)c(C(F)(F)F)c3)cc2)ccn1` [Sorafenib, reference compound], for which the IC50 is ~12.3 µM and 12.3 µM.

As to `CCOC(=O)C1=C(N)Oc2cc(O)c(/N=N/c3ccc(S(N)(=O)=O)cc3)cc2C1c1ccccc1` (stereo not shown) [7a], the concentration for half-maximal inhibition (IC50) is ~113 µM and 113 µM.

As for `CCOC(=O)C1=C(N)Oc2cc(O)c(/N=N/c3ccc(S(N)(=O)=O)cc3)cc2C1c1ccc(Cl)cc1` (stereo not shown) [7f], the IC50 was ~64.8 µM and 64.8 µM.

Staying with this assay, now noted: first concentration of two-fold serial dilutions.
For `CCOC(=O)C1=C(N)Oc2cc(O)c(/N=N/c3ccc(S(N)(=O)=O)cc3)cc2C1c1ccccc1` (stereo not shown) [7a], the “anti-MMP-2 inhibition at the first concentration” value is given as approximately 73.89%.

For the molecule `CCOC(=O)C1=C(N)Oc2cc(O)c(/N=N/c3ccc(S(N)(=O)=O)cc3)cc2C1c1ccc(Cl)cc1` (stereo not shown) [7f], the “anti-MMP-2 inhibition at the first concentration” value was “approximately 80.93%”.

For the next assay, the system named is human liver carcinoma (HepG-2). Nature of the assay: MTT cytotoxicity, HepG-2. Format: cell-based. The settings on record: HepG-2 cells.
Description: as §1, §2
Take `CCOC(=O)C1=C(N)Oc2cc(O)c(/N=N/c3ccc(S(N)(=O)=O)cc3)cc2C1c1ccc(Cl)cc1` (stereo not shown) [7f]: the midpoint of inhibition, the IC50, lay at 1.74 ± 0.07 µM.

The same assay, now with this note: Homo sapiens, HepG2, HepG-2 cells.
Turning to `CCOC(=O)C1=C(N/C(=C(/C#N)C(=O)OCC)c2ccc(C)cc2)Oc2cc(O)c(/N=N/c3ccc(S(=O)(=O)Nc4nccs4)cc3)cc2C1c1ccc(C)cc1` (stereo not shown) [11d], the IC50 amounted to 4.71 ± 0.47 µM.

The molecule `CCOC(=O)C1=C(N)Oc2cc(O)c(/N=N/c3ccc(S(N)(=O)=O)cc3)cc2C1c1ccccc1` (stereo not shown) [7a] yielded a half-maximal inhibitory concentration (IC50) of 3.92 ± 0.09 µM.

With `CCOC(=O)C1=C(N/C(=C(/C#N)C(=O)OCC)c2ccc(C)cc2)Oc2cc(O)c(/N=N/c3ccc(S(=O)(=O)Nc4cc(C)no4)cc3)cc2C1c1ccc(C)cc1` (stereo not shown) [11e], the IC50 amounted to 17.3 ± 1.06 µM.

Molecule `CCOC(=O)C1=C(N)Oc2cc(O)c(/N=N/c3ccc(S(N)(=O)=O)cc3)cc2C1c1ccc(Cl)cc1` (stereo not shown) [7f] came in with a half-inhibitory concentration (IC50) of 1.63 µM.

`CCOC(=O)C1=C(N/C(=C(/C#N)C(=O)OCC)c2ccc(C)cc2)Oc2cc(O)c(/N=N/c3ccc(S(=O)(=O)NC(=N)N)cc3)cc2C1c1ccc(C)cc1` (stereo not shown) [11c] registered an IC50 of 73.8 ± 2.89 µM.

The molecule `CCOC(=O)C1=C(N/C(=C(/C#N)C(=O)OCC)c2ccc(C)cc2)Oc2cc(O)c(/N=N/c3ccc(S(N)(=O)=O)cc3)cc2C1c1ccc(C)cc1` (stereo not shown) [11a] gave a half-maximal inhibitory concentration (IC50) of 32.2 ± 1.79 µM.

For a further assay, the system named is human colon carcinoma (HCT-116). Kind of assay: MTT cytotoxicity, HCT-116. Format: cell-based. The conditions noted are these: HCT-116 cells.
Description: as §1, §2
In the case of `CCOC(=O)C1=C(N)Oc2cc(O)c(/N=N/c3ccc(S(N)(=O)=O)cc3)cc2C1c1ccc(Cl)cc1` (stereo not shown) [7f], the “IC50 (µM) HCT-116” value was “good potency”.

Staying with this assay, now noted: Homo sapiens, HCT-116 cells.
Molecule `CCOC(=O)C1=C(N/C(=C(/C#N)C(=O)OCC)c2ccc(C)cc2)Oc2cc(O)c(/N=N/c3ccc(S(=O)(=O)Nc4nccs4)cc3)cc2C1c1ccc(C)cc1` (stereo not shown) [11d] came in with an IC50 of 6.32 ± 0.68 µM.

`CCOC(=O)C1=C(N)Oc2cc(O)c(/N=N/c3ccc(S(N)(=O)=O)cc3)cc2C1c1ccccc1` (stereo not shown) [7a] had an IC50 of 6.82 ± 0.19 µM.

Turning to `CCOC(=O)C1=C(N/C(=C(/C#N)C(=O)OCC)c2ccc(C)cc2)Oc2cc(O)c(/N=N/c3ccc(S(=O)(=O)Nc4cc(C)no4)cc3)cc2C1c1ccc(C)cc1` (stereo not shown) [11e], the IC50 came out at 18.4 ± 1.19 µM.

As to `CCOC(=O)C1=C(N)Oc2cc(O)c(/N=N/c3ccc(S(N)(=O)=O)cc3)cc2C1c1ccc(Cl)cc1` (stereo not shown) [7f], the midpoint of inhibition, the IC50, lay at 3.57 ± 0.11 µM.

The molecule `CCOC(=O)C1=C(N/C(=C(/C#N)C(=O)OCC)c2ccc(C)cc2)Oc2cc(O)c(/N=N/c3ccc(S(=O)(=O)NC(=N)N)cc3)cc2C1c1ccc(C)cc1` (stereo not shown) [11c] yielded an IC50 of 79.5 ± 3.65 µM.

Turning to `CCOC(=O)C1=C(N/C(=C(/C#N)C(=O)OCC)c2ccc(C)cc2)Oc2cc(O)c(/N=N/c3ccc(S(N)(=O)=O)cc3)cc2C1c1ccc(C)cc1` (stereo not shown) [11a], half-maximal inhibition (IC50) was put at 12.2 ± 0.96 µM.

The test system of another assay is human breast adenocarcinoma (MCF-7). Nature of the assay: MTT cytotoxicity, MCF-7. It counts as cell-based. The conditions noted are these: Homo sapiens, MCF7, MCF-7 cells.
Description: as §1, §2
The molecule `CCOC(=O)C1=C(N/C(=C(/C#N)C(=O)OCC)c2ccc(C)cc2)Oc2cc(O)c(/N=N/c3ccc(S(=O)(=O)Nc4nccs4)cc3)cc2C1c1ccc(C)cc1` (stereo not shown) [11d] yielded a half-inhibitory concentration (IC50) of 9.13 ± 0.93 µM.

In the case of `CCOC(=O)C1=C(N)Oc2cc(O)c(/N=N/c3ccc(S(N)(=O)=O)cc3)cc2C1c1ccccc1` (stereo not shown) [7a], the IC50 came out at 13.05 ± 0.12 µM.

The molecule `CCOC(=O)C1=C(N/C(=C(/C#N)C(=O)OCC)c2ccc(C)cc2)Oc2cc(O)c(/N=N/c3ccc(S(=O)(=O)Nc4cc(C)no4)cc3)cc2C1c1ccc(C)cc1` (stereo not shown) [11e] came in with an IC50 of 23.6 ± 2.05 µM.

In turn, `CCOC(=O)C1=C(N)Oc2cc(O)c(/N=N/c3ccc(S(N)(=O)=O)cc3)cc2C1c1ccc(Cl)cc1` (stereo not shown) [7f] yielded an IC50 of 3.93 ± 0.09 µM.

With `CCOC(=O)C1=C(N/C(=C(/C#N)C(=O)OCC)c2ccc(C)cc2)Oc2cc(O)c(/N=N/c3ccc(S(=O)(=O)NC(=N)N)cc3)cc2C1c1ccc(C)cc1` (stereo not shown) [11c], the IC50 turned out to be 105 ± 5.78 µM.

`CCOC(=O)C1=C(N/C(=C(/C#N)C(=O)OCC)c2ccc(C)cc2)Oc2cc(O)c(/N=N/c3ccc(S(N)(=O)=O)cc3)cc2C1c1ccc(C)cc1` (stereo not shown) [11a] yielded a concentration for half-maximal inhibition (IC50) of 20.8 ± 1.38 µM.

The target in the next assay is T3, cytosolic hCA II (Bos taurus, UniProt P00921).
T3 construct: purchased Sigma–Aldrich C2624
T3 sequence (P00921 whole entry): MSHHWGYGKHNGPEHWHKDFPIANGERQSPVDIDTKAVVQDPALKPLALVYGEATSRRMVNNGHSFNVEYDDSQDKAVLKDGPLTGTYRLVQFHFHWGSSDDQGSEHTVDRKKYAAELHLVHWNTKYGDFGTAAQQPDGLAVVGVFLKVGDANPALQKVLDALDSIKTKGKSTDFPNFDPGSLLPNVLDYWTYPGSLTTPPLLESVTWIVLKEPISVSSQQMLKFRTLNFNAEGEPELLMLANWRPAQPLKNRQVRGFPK
Kind of assay: CA-II inhibition assay (esterase activity, 4-NPA). It counts as biochemical, bovine. The settings on record: reduction in esterase activity, 4-NPA substrate; read-out: IC50 against hCA II. The procedure:
The CA-II inhibition assay for the analyzed molecules was performed based on the measurement of the reduction in esterase activity on the substrate p-nitrophenyl acetate (4-NPA). Briefly, the total mixture volume was 200 µL in a well containing 140 µL (20 mM HEPES) Tris buffer (pH 7.4), 20 µL of the enzyme (from bovine, Sigma–Aldrich, C2624, St. Louis, MO, USA), and 20 µL (0.5 mg/mL in DMSO) of the investigated derivatives, which were mixed and incubated at 25 °C for 15 min. […] The results, attained after the reactions were completed in triplicate, were quantified by the equation given below. The percent inhibition for each sample was calculated as Inhibition (%) = [(C − T)/C] × 100, where C (i.e., control) = total enzyme activity without inhibitor and T (i.e., test sample) = activity in the presence of test compound.
Consider `CCOC(=O)C1=C(N/C(=C(/C#N)C(=O)OCC)c2ccc(C)cc2)Oc2cc(O)c(/N=N/c3ccc(S(=O)(=O)Nc4nccs4)cc3)cc2C1c1ccc(C)cc1` (stereo not shown) [11d], for which the IC50 amounted to 267 µM.

In the case of `CCOC(=O)C1=C(N)Oc2cc(O)c(/N=N/c3ccc(S(N)(=O)=O)cc3)cc2C1c1ccccc1` (stereo not shown) [7a], the IC50 is 301 µM.

As for `CCOC(=O)C1=C(N)Oc2cc(O)c(/N=N/c3ccc(S(N)(=O)=O)cc3)cc2C1c1ccc(Cl)cc1` (stereo not shown) [7f], the IC50 is 164 µM.
